Laboratory results published in the supplement of paper PMC10627819.

How the values were obtained:
S. aureus DSM 20231 [1] = assay: fitness (endpoint OD595 vs no drug) (fraction); higher = more growth
Method in brief: (§1)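 At 37 °C, bacteria in TSB, LB Lennox or CY were grown in 384-well plates from a starting OD595 of 0.01. OD595 was measured every 30 min for 14 h, with the first reading used as background. Fitness is the optical density at the switch to stationary phase as a fraction of the robust mean of no-drug control wells, capped at 1.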

S. pneumoniae D39V [2] = assay: as above
Method in brief: as §1

S. aureus DSM 20231 [3] = assay: Bliss interaction score (quartile over a dose matrix) (fitness difference); higher = more antagonism (negative = synergy)
Method in brief: (§2)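 The Bliss score takes observed fitness and subtracts the expected fitness, calculated as a product of single-drug fitness values. Those single-drug values were inferred from the combination data. Fitness is OD595 at entry into stationary phase divided by the plate's robust no-drug mean, capped at 1, and the score is summarised by quartiles across technical, biological and donor/recipient replicates.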

S. aureus Newman = assay: as above
Method in brief: as §2

S. pneumoniae D39V [4] = assay: as above
Method in brief: as §2

B. subtilis 168 = assay: as above
Method in brief: as §2
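Wherever Bliss interaction score (quartile over a dose matrix) is given: first quartile when negative (synergy) and third quartile when positive (antagonism).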
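Wherever fitness (endpoint OD595 vs no drug) is given: OD595 on entry to stationary phase over no-drug wells; at most 1.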

CC1(C)S[C@@H]2[C@H](NC(=O)[C@H](N)c3ccc(O)cc3)C(=O)N2[C@H]1C(=O)O [Amoxicillin] + CC(=O)NC[C@H]1CN(c2ccc(N3CCOCC3)c(F)c2)C(=O)O1 [Linezolid]
Conditions | fitness
S. aureus DSM 20231 [1], first compound 0.0625 µg/mL, partner 0.125 µg/mL | 0.652
S. aureus DSM 20231 [1], first compound 0.0625 µg/mL, partner 0.25 µg/mL | 0.427
S. aureus DSM 20231 [1], first compound 0.0625 µg/mL, partner 0.5 µg/mL | 0.161
S. aureus DSM 20231 [1], first compound 0.125 µg/mL, partner 0.125 µg/mL | 0.368
S. aureus DSM 20231 [1], first compound 0.125 µg/mL, partner 0.25 µg/mL | 0.292
S. aureus DSM 20231 [1], first compound 0.125 µg/mL, partner 0.5 µg/mL | 0.0966
S. aureus DSM 20231 [1], first compound 0.25 µg/mL, partner 0.125 µg/mL | 0.129
S. aureus DSM 20231 [1], first compound 0.25 µg/mL, partner 0.25 µg/mL | 0.0329
S. aureus DSM 20231 [1], first compound 0.25 µg/mL, partner 0.5 µg/mL | 0.0469
S. pneumoniae D39V [2], first compound 0.0008 µg/mL, partner 0.105 µg/mL | 0.877
S. pneumoniae D39V [2], first compound 0.0008 µg/mL, partner 0.21 µg/mL | 0.724
S. pneumoniae D39V [2], first compound 0.0008 µg/mL, partner 0.42 µg/mL | 0.592
S. pneumoniae D39V [2], first compound 0.0015 µg/mL, partner 0.105 µg/mL | 0.84
S. pneumoniae D39V [2], first compound 0.0015 µg/mL, partner 0.2 µg/mL | 0.885
S. pneumoniae D39V [2], first compound 0.0015 µg/mL, partner 0.21 µg/mL | 0.784
S. pneumoniae D39V [2], first compound 0.0015 µg/mL, partner 0.4 µg/mL | 0.523
S. pneumoniae D39V [2], first compound 0.0015 µg/mL, partner 0.42 µg/mL | 0.578
S. pneumoniae D39V [2], first compound 0.0015 µg/mL, partner 0.8 µg/mL | 0.377
S. pneumoniae D39V [2], first compound 0.003 µg/mL, partner 0.105 µg/mL | 0.811
S. pneumoniae D39V [2], first compound 0.003 µg/mL, partner 0.2 µg/mL | 0.832
S. pneumoniae D39V [2], first compound 0.003 µg/mL, partner 0.21 µg/mL | 0.72
S. pneumoniae D39V [2], first compound 0.003 µg/mL, partner 0.4 µg/mL | 0.57
S. pneumoniae D39V [2], first compound 0.003 µg/mL, partner 0.42 µg/mL | 0.507
S. pneumoniae D39V [2], first compound 0.003 µg/mL, partner 0.8 µg/mL | 0.39

one replicate
Conditions | fitness
S. aureus DSM 20231 [1], first compound 0.0625 µg/mL, partner 1 µg/mL | 0.0145
S. aureus DSM 20231 [1], first compound 0.125 µg/mL, partner 1 µg/mL | 0.012
S. aureus DSM 20231 [1], first compound 0.25 µg/mL, partner 1 µg/mL | 0.0104
S. aureus DSM 20231 [1], first compound 0.5 µg/mL, partner 0.125 µg/mL | 0.0313
S. aureus DSM 20231 [1], first compound 0.5 µg/mL, partner 0.25 µg/mL | 0.0362
S. aureus DSM 20231 [1], first compound 0.5 µg/mL, partner 0.5 µg/mL | 0.032
S. pneumoniae D39V [2], first compound 0.0008 µg/mL, partner 0.2 µg/mL | 0.875
S. pneumoniae D39V [2], first compound 0.0008 µg/mL, partner 0.4 µg/mL | 0.648
S. pneumoniae D39V [2], first compound 0.0008 µg/mL, partner 0.8 µg/mL | 0.419
S. pneumoniae D39V [2], first compound 0.006 µg/mL, partner 0.2 µg/mL | 0.532
S. pneumoniae D39V [2], first compound 0.006 µg/mL, partner 0.4 µg/mL | 0.359
S. pneumoniae D39V [2], first compound 0.006 µg/mL, partner 0.8 µg/mL | 0.212

Conditions | Bliss interaction score
B. subtilis 168 | -0.0837
S. aureus DSM 20231 [3] | 0.0353
S. aureus Newman | -0.0532
S. pneumoniae D39V [4] | 0.225

CC1(C)S[C@@H]2[C@H](NC(=O)[C@H](N)c3ccc(O)cc3)C(=O)N2[C@H]1C(=O)O [Amoxicillin] + CCC[C@@H]1C[C@@H](C(=O)N[C@@H]([C@H]2O[C@H](SC)[C@H](O)[C@@H](O)[C@H]2O)[C@@H](C)O)N(C)C1 [Lincomycin]
fitness
Conditions | partner 0.1 µg/mL | partner 0.2 µg/mL | partner 0.215 µg/mL | partner 0.4 µg/mL | partner 0.43 µg/mL | partner 0.8 µg/mL | partner 0.86 µg/mL
S. aureus DSM 20231 [1], first compound 0.0625 µg/mL | 0.624 | 0.492 | – | 0.213 | – | – | –
S. aureus DSM 20231 [1], first compound 0.125 µg/mL | – | 0.358 | – | 0.129 | – | – | –
S. aureus DSM 20231 [1], first compound 0.25 µg/mL | 0.0334 | 0.0486 | – | 0.064 | – | – | –
S. aureus DSM 20231 [1], first compound 0.5 µg/mL | 0.0005 | 0.0261 | – | 0.0105 | – | – | –
S. pneumoniae D39V [2], first compound 0.0008 µg/mL | – | – | 0.838 | – | 0.739 | – | 0.409
S. pneumoniae D39V [2], first compound 0.0015 µg/mL | – | 0.847 | 0.878 | 0.54 | 0.744 | 0.312 | 0.437
S. pneumoniae D39V [2], first compound 0.003 µg/mL | – | 0.816 | 0.852 | 0.554 | 0.744 | 0.337 | 0.477

fitness, S. pneumoniae D39V [2], one replicate
Conditions | partner 0.2 µg/mL | partner 0.4 µg/mL | partner 0.8 µg/mL
first compound 0.0008 µg/mL | 0.878 | 0.489 | 0.393
first compound 0.006 µg/mL | 0.484 | 0.216 | 0.143

Conditions | Bliss interaction score
B. subtilis 168 | -0.0381
S. aureus DSM 20231 [3] | -0.0436
S. aureus Newman | 0.117
S. pneumoniae D39V [4] | 0.227
